This is an account of results in patent US12077534B2, “Aza-heterobicyclic inhibitors of MAT2A and methods of use for treating cancer” (Les Laboratoires Servier SAS, priority 2018, dated 2024).

The structures appear in SMILES notation. pIC50: −log10 of the molar value. Some results are limits rather than exact numbers.

The subject of one assay is HCT116 MTAP+/+. The experiment in a line: Inhibition of cellular proliferation (Cell Titer Glo), HCT116 MTAP+/+. It counts as cell-based. As to conditions: Homo sapiens, HCT-116, 96 h, 4 days, read-out: 4 Day Relative Growth Inhibition (MTAP +/+). The method in brief:
(§1)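 Isogenic HCT116 MTAP+/+ and MTAP−/− cells treated 24 h after plating with 10-point 3-fold dilutions, then grown 4 days at 37 °C/5% CO2. ATP content read by Cell Titer Glo luminescence, blank-subtracted and normalized to 0.2% DMSO control, plotted as percent proliferation change versus log molar concentration.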
(In ATP-based viability assays light output follows the ATP content of the culture.)

The next assay concerns the target T1, MAT2A homodimer (Homo sapiens, UniProt P31153).
T1 construct: inferred from Ni sepharose purification and imidazole elution; made in house; host or cells: SF9 insect cells, recombinant baculovirus (Bac to Bac, pFASTBAC1)
Nature of the assay: MAT2A biochemical assay (phosphate release, PiColorLock Gold). As to conditions: recombinant MAT2A homodimer, 60 min pre-incubation, 25° C.; read-out: Enzyme Inhibition. The gist of the method: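 Baculovirus/Sf9-expressed, Ni-purified MAT2A homodimer (4 µg/mL in pH 8.0 Tris/KCl/MgCl2 buffer) preincubated 60 min at 25 °C with compound (2% DMSO final). Substrate mix of 500 µM ATP and 400 µM L-methionine added; 60 min at 25 °C; released phosphate quantified colorimetrically against a phosphate standard curve.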

A further assay deals with HCT116 MTAP−/−. The experiment in a line: Inhibition of cellular proliferation (Cell Titer Glo), HCT116 MTAP-/-. It counts as cell-based. The conditions noted are these: Homo sapiens, HCT-116, 96 h, 4 days, read-out: 4 Day Relative Growth Inhibition (MTAP −/−). The method in brief:
as §1

Assay [1] deals with MAT2A activity (SAM) in HCT116 cells with deleted MTAP gene. The experiment in a line: Cellular assay of target engagement (SAM) by LC-MS/MS. It counts as cell-based. The conditions noted are these: Homo sapiens, HCT-116; HCT116 MTAP −/−, 72 hrs; read-out: Cell 72 h SAM Inhibition (MTAP −/−). The gist of the method:
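HCT116 MTAP-deleted cells treated with 10-point 3-fold DMSO serial dilutions of compound for 72 hrs at 37° C. Cells lysed in cold 80% methanol/acetic acid extraction buffer with d3-SAM internal standard; SAM quantified by LC-MS/MS (MRM m/z 399.2→250.1).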

T1 sequence (P31153 whole entry): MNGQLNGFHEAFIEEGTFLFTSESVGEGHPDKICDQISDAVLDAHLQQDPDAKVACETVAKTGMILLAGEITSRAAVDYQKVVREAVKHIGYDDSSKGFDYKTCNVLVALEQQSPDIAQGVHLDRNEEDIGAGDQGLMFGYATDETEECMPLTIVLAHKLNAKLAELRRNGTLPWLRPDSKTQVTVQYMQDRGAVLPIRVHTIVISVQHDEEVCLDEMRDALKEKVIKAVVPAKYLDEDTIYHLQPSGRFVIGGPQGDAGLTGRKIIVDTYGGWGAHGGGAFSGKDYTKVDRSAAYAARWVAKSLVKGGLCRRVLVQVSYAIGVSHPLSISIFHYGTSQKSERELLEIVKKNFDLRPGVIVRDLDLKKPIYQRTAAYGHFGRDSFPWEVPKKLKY

Turning to `O=c1c(-c2ccc(OC(F)F)cc2)c2nc(OCC(F)F)ccc2nn1-c1ccc2c(c1)OCCO2` [Example 177], the pIC50 in the assay with HCT116 MTAP+/+ is 6.00 to 7.00; on MAT2A homodimer, > 7.00; in the assay on HCT116 MTAP−/−, > 7.00; in assay [1], > 7.00.
In the case of `O=c1c(-c2ccc(OC(F)F)cc2)c2nc(OCC(F)F)ccc2nn1-c1ccc2c(c1)CCO2` [Example 178], the pIC50 in the assay with HCT116 MTAP+/+ was 6.00 to 7.00; at MAT2A homodimer, > 7.00; in the assay with HCT116 MTAP−/−, > 7.00; in assay [1], > 7.00.
On to `O=c1c(-c2ccc(OC(F)F)cc2)c2nc(OCC(F)F)ccc2nn1-c1ccc2ncncc2c1` [Example 179], for which the pIC50 is ≤ 6.00 with HCT116 MTAP+/+, > 7.00 on MAT2A homodimer, 6.00 to 7.00 in the assay with HCT116 MTAP−/− and > 7.00 in assay [1].
In the case of `CN1CCOc2ccc(-n3nc4ccc(OCC(F)F)nc4c(-c4ccc(OC(F)F)cc4)c3=O)cc21` [Example 180], the pIC50 is ≤ 6.00 in the assay on HCT116 MTAP+/+, > 7.00 on MAT2A homodimer, > 7.00 with HCT116 MTAP−/− and > 7.00 in assay [1].
Take `Cn1nc2ccc(-n3nc4ccc(OCC(F)F)nc4c(-c4ccc(OC(F)F)cc4)c3=O)cc2n1` [Example 182]: the pIC50 is 6.00 to 7.00 in the assay with HCT116 MTAP+/+, > 7.00 on MAT2A homodimer, > 7.00 with HCT116 MTAP−/− and > 7.00 in assay [1].
For `O=c1c(-c2ccc(OC(F)F)cc2)c2nc(OCC(F)F)ccc2nn1-c1ccc2ncccc2c1` [Example 183], the pIC50 was 6.00 to 7.00 with HCT116 MTAP+/+, > 7.00 at MAT2A homodimer, > 7.00 with HCT116 MTAP−/− and > 7.00 in assay [1].
With `O=c1c(-c2ccc(OC(F)F)cc2)c2nc(OCC(F)F)ccc2nn1-c1ccc2nncn2c1` [Example 184], the pIC50 is ≤ 6.00 with HCT116 MTAP+/+, > 7.00 at MAT2A homodimer, 6.00 to 7.00 in the assay with HCT116 MTAP−/− and > 7.00 in assay [1].
In the case of `COC1CC=C(n2nc3ccc(OCC(F)F)nc3c(-c3ccc(OC(F)F)cc3)c2=O)CC1` (centres unmarked) [Example 187], the pIC50 in the assay with HCT116 MTAP+/+ was ≤ 6.00; on MAT2A homodimer it was > 7.00; with HCT116 MTAP−/−, ≤ 6.00; in assay [1], 6.00 to 7.00.
As to `O=c1c(-c2ccc(OC(F)F)cc2)c2nc(OCC(F)F)ccc2nn1-c1ccncc1` [Example 188], the pIC50 was ≤ 6.00 with HCT116 MTAP+/+, > 7.00 at MAT2A homodimer, 6.00 to 7.00 with HCT116 MTAP−/− and 6.00 to 7.00 in assay [1].
On to `CNC(=O)c1ccc(-n2nc3ccc(OCC(F)F)nc3c(-c3ccc(OC(F)F)cc3)c2=O)cc1` [Example 189], for which the pIC50 in the assay on HCT116 MTAP+/+ is ≤ 6.00; at MAT2A homodimer it was > 7.00; in the assay with HCT116 MTAP−/−, 6.00 to 7.00; in assay [1], 6.00 to 7.00.
As to `O=c1c(-c2ccc(OC(F)F)cc2)c2nc(OCC(F)F)ccc2nn1-c1ccc(F)cc1` [Example 191], the pIC50 was ≤ 6.00 with HCT116 MTAP+/+, 6.00 to 7.00 at MAT2A homodimer, ≤ 6.00 with HCT116 MTAP−/− and 6.00 to 7.00 in assay [1].
As for `O=c1c(-c2ccc(OC(F)F)cc2)c2nc(OCC(F)F)ccc2nn1-c1ccc2nccnc2c1` [Example 192], the pIC50 in the assay with HCT116 MTAP+/+ was 6.00 to 7.00; on MAT2A homodimer, > 7.00; in the assay with HCT116 MTAP−/−, 6.00 to 7.00; in assay [1] it was > 7.00.
Consider `O=c1c(-c2ccc(OC(F)F)cc2)c2nc(OCC(F)F)ccc2nn1-c1cn[nH]c1` [Example 193], for which the pIC50 is ≤ 6.00 with HCT116 MTAP+/+, > 7.00 on MAT2A homodimer, 6.00 to 7.00 with HCT116 MTAP−/− and 6.00 to 7.00 in assay [1].
As for `Cn1cc2cc(-n3nc4cc(F)c(OCC(F)F)nc4c(-c4ccc(OC(F)F)cc4)c3=O)ccc2n1` [Example 194, 6-(2,2-difluoroethoxy)-4-(4-(difluoromethoxy)phenyl)-7-fluoro-2-(2-methyl-2H-indazol-5-yl)pyrido[3,2-c]pyridazin-3(2H)-one], the pIC50 is ≤ 6.00 in the assay on HCT116 MTAP+/+, > 7.00 on MAT2A homodimer, > 7.00 in the assay on HCT116 MTAP−/− and 6.00 to 7.00 in assay [1].
On to `CCOc1nc2c(-c3ccc(OC(F)F)cc3)c(=O)n(-c3ccc4nn(C)cc4c3)nc2cc1F` [Example 195], for which the pIC50 in the assay with HCT116 MTAP+/+ is ≤ 6.00; on MAT2A homodimer, > 7.00; with HCT116 MTAP−/− it was ≤ 6.00; in assay [1], > 7.00.
`CCNc1nc2c(-c3ccc(OC(F)F)cc3)c(=O)n(-c3ccc4nn(C)cc4c3)nc2cc1F` [Example 196]: the pIC50 in the assay with HCT116 MTAP+/+ was ≤ 6.00; at MAT2A homodimer, > 7.00; in the assay with HCT116 MTAP−/−, > 7.00; in assay [1], > 7.00.
On to `Cn1cc2cc(-n3nc4cc(F)c(NCC(F)(F)F)nc4c(-c4ccc(OC(F)F)cc4)c3=O)ccc2n1` [Example 197], for which the pIC50 was ≤ 6.00 with HCT116 MTAP+/+, > 7.00 at MAT2A homodimer, > 7.00 with HCT116 MTAP−/− and > 7.00 in assay [1].
With `CCOc1ccc2nn(-c3ccc4nn(C)cc4c3)c(=O)c(-c3ccc(Br)cc3)c2n1` [Example 198, 4-(4-bromophenyl)-6-ethoxy-2-(2-methyl-2H-indazol-5-yl)pyrido[3,2-c]pyridazin-3(2H)-one], the pIC50 was ≤ 6.00 with HCT116 MTAP+/+, > 7.00 at MAT2A homodimer, > 7.00 in the assay with HCT116 MTAP−/− and > 7.00 in assay [1].
As for `CC(C)Oc1ccc2nn(-c3ccc4nn(C)cc4c3)c(=O)c(-c3ccc(Br)cc3)c2n1` [Example 199, 4-(4-bromophenyl)-6-isopropoxy-2-(2-methyl-2H-indazol-5-yl)pyrido[3,2-c]pyridazin-3(2H)-one], the pIC50 in the assay on HCT116 MTAP+/+ is ≤ 6.00; at MAT2A homodimer it was > 7.00; with HCT116 MTAP−/− it was > 7.00; in assay [1], > 7.00.
As for `Cn1cc2cc(-n3nc4ccc(OCC(F)F)nc4c(-c4ccc(Br)cc4)c3=O)ccc2n1` [Example 200, 4-(4-bromophenyl)-6-(2,2-difluoroethoxy)-2-(2-methyl-2H-indazol-5-yl)pyrido[3,2-c]pyridazin-3(2H)-one], the pIC50 was ≤ 6.00 in the assay on HCT116 MTAP+/+, > 7.00 at MAT2A homodimer, > 7.00 with HCT116 MTAP−/− and > 7.00 in assay [1].
Take `O=c1c(-c2ccc(Br)cc2)c2nc(OCC(F)F)ccc2nn1-c1ccc2ncsc2c1` [Example 201, 2-(benzo[d]thiazol-6-yl)-4-(4-bromophenyl)-6-(2,2-difluoroethoxy)pyrido[3,2-c]pyridazin-3(2H)-one]: the pIC50 with HCT116 MTAP+/+ is ≤ 6.00; on MAT2A homodimer, > 7.00; in the assay with HCT116 MTAP−/−, > 7.00; in assay [1], > 7.00.
Take `CC(C)Oc1ccc2nn(-c3ccc4ncsc4c3)c(=O)c(-c3ccc(Br)cc3)c2n1` [Example 202, 2-(benzo[d]thiazol-6-yl)-4-(4-bromophenyl)-6-isopropoxypyrido[3,2-c]pyridazin-3(2H)-one]: the pIC50 with HCT116 MTAP+/+ was ≤ 6.00; at MAT2A homodimer it was > 7.00; in the assay with HCT116 MTAP−/−, > 7.00; in assay [1], > 7.00.
As to `CN(C)c1c2cc(-n3nc4ccc(OCC(F)F)nc4c(-c4ccc(OC(F)F)cc4)c3=O)ccc2nn1C` [Example 203, 6-(2,2-difluoroethoxy)-4-(4-(difluoromethoxy)phenyl)-2-(3-(dimethylamino)-2-methyl-2H-indazol-5-yl)pyrido[3,2-c]pyridazin-3(2H)-one], the pIC50 was 6.00 to 7.00 in the assay on HCT116 MTAP+/+, > 7.00 at MAT2A homodimer, > 7.00 in the assay with HCT116 MTAP−/− and > 7.00 in assay [1].
